What all share (format): cell-based
One assay has as its system MV-4-11 cells. Briefly: AML cell viability, CellTiter-Glo, MV-4-11 cells. The following applies: Homo sapiens, MV4-11, CellTiter-Glo. The protocol:
MV4-11 cells were obtained from ATCC and grown in IMDM supplemented with 10% FBS. The cells were maintained at 37° C. under 5% CO2. […] The luminescence was normalized to that of DMSO-treated samples. IC50 values were obtained using three-parameter non-linear regressions using Prism (GraphPad). […] Cell viability was measured using the CellTiter-Glo reagent after 44 hours of treatment. […] MV4-11 cells were obtained from ATCC and grown in IMDM supplemented with 10% FBS. The cells were maintained at 37° C. under 5% CO2. […] Cell viability was measured using the CellTiter-Glo reagent after 44 hours of treatment.

The next assay relates to NCI-H1155 cells. The experiment in a line: NSCLC cell viability, CellTiter-Glo, NCI-H1155 cells. The following applies: Homo sapiens; NCI-H1155 cells, CellTiter-Glo, 72 hours of treatment; read-out: Cell viability classification (NCI-H1155). Background: In ATP-based viability assays light output follows the ATP content of the culture.
For another assay, the target named is GSPT1 (Homo sapiens, UniProt P15170+Q96SW2). The procedure:
GSPT1_HiBIT_HEK293 cells were culture in DMEM medium with 10% FBS under standard tissue culture conditions. […] GSPT1 level was determined in along with the Nano-Glo HiBiT Lytic Detection system [Promega N3050] with final concentration of 1×. The luminescence was normalized to that of DMSO-treated samples. DC50 values were obtained using three-parameter non-linear regressions using Prism (GraphPad).

[1] abbreviates: MV-4-11 cells, 44 hours of treatment, TABLE 1, read-out: Cell viability classification.
[2] abbreviates: MV-4-11 cells, 44 hours of treatment, TABLE 5, read-out: Cell viability classification (MV-4-11).
Setting [3] is: DC50, GSPT1_HiBIT_HEK293 cells, 16 hours, Nano-Glo HiBiT Lytic Detection; read-out: GSPT1 degradation classification.
The mark [4] stands for this setting: read-out: GSPT1 degradation classification; DC50, GSPT1_HiBIT_HEK293 cells, 16 hours, Nano-Glo HiBiT Lytic Detection.

Experimental findings from patent US20260285872A1, “COMPOUNDS AND METHODS FOR DEGRADING GSPT1” (priority 2023, published 2026) are described below.

Where two headings read alike, the source gives them in different places.

Sequence of GSPT1 (P15170 whole entry): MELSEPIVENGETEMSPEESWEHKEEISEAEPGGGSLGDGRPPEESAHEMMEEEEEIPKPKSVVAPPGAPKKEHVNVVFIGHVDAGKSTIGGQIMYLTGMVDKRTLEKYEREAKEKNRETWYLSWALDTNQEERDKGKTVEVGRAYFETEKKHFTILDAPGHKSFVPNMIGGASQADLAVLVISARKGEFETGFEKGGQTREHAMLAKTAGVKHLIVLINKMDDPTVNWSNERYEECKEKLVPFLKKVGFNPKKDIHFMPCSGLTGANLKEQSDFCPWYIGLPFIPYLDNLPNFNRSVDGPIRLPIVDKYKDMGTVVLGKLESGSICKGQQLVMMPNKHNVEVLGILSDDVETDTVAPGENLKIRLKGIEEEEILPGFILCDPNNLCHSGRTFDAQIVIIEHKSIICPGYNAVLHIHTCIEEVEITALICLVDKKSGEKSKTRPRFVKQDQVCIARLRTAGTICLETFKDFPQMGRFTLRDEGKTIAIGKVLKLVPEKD
Sequence of GSPT1 (Q96SW2 whole entry): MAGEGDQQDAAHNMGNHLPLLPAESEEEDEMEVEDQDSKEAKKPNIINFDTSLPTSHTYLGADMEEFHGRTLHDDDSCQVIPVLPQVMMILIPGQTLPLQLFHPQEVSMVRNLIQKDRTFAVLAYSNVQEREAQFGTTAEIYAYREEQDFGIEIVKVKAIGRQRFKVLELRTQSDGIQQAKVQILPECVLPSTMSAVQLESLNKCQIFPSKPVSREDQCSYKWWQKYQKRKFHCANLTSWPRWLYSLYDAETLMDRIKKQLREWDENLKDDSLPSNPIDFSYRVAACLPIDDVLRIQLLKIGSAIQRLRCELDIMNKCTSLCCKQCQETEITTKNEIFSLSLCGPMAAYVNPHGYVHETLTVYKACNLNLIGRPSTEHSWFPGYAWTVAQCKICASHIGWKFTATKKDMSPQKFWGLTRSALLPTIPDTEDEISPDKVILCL
Sequence of GSPT1 (Q16531 whole entry partner): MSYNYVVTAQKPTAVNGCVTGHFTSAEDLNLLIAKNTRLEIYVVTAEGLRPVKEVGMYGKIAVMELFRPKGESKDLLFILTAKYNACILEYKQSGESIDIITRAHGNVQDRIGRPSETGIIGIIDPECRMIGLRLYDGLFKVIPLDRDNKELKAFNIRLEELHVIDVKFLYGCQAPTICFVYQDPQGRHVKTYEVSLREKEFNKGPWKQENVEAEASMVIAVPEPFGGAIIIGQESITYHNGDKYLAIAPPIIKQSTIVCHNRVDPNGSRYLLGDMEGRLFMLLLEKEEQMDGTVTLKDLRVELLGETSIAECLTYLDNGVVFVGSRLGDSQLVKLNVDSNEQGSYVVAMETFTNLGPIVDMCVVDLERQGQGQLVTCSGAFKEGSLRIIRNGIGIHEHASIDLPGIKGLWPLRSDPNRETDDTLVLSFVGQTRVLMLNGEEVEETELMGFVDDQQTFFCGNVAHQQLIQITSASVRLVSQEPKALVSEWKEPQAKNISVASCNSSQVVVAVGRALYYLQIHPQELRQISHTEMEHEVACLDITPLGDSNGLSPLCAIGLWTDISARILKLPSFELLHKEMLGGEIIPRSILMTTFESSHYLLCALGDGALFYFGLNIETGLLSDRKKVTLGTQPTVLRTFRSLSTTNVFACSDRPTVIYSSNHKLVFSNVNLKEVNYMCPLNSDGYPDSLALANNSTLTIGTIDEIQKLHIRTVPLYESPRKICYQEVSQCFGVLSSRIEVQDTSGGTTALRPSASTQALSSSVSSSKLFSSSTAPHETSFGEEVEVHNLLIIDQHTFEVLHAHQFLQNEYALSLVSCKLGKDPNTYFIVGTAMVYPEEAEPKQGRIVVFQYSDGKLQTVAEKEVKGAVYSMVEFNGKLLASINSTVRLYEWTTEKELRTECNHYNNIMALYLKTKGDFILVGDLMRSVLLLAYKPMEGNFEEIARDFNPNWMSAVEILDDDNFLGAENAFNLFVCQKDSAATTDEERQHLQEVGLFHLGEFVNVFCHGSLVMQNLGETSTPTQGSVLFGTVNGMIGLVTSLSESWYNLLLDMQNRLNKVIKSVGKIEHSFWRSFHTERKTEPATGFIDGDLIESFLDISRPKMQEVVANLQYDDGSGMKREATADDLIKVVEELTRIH

Regarding `O=C1CC[C@H](N2Cc3cc(C(=O)Nc4cncc5ccccc45)ccc3C2=O)C(=O)N1` (stereo in doubt) [Example 2, 2-(2,6-dioxopiperidin-3-yl)-N-(isoquinolin-4-yl)-1-oxoisoindoline-5-carboxamide], the IC50 in the assay with MV-4-11 cells (setting [1]) was in the range of 100 to 1000 nM. Same read-out and setting: the figure for `O=C1CCC(N2Cc3cc(C(=O)N4Cc5ccccc5C4)ccc3C2=O)C(=O)N1` (stereo not shown) [Example 12, 3-(5-(isoindoline-2-carbonyl)-1-oxoisoindolin-2-yl)piperidine-2,6-dione] is less than 100 nM. `COc1cc(F)c2c(c1)CCN2C(=O)c1ccc2c(c1)CN(C1CCC(=O)NC1=O)C2=O` (stereo not shown) [Example 64, 3-(5-(7-fluoro-5-methoxyindoline-1-carbonyl)-1-oxoisoindolin-2-yl)piperidine-2,6-dione]: in the assay on MV-4-11 cells (TABLE 2, MV-4-11 cells assumed, 44 hours, read-out: Cell viability classification), the IC50 was less than 100 nM. For `O=C1CCN(c2ccc3ccc(C(=O)N4CCc5cccc(F)c54)cc3c2)C(=O)N1` [Example 118, 1-(7-(7-fluoroindoline-1-carbonyl)naphthalen-2-yl)dihydropyrimidine-2,4(1H,3H)-dione], the IC50 with MV-4-11 cells (setting [2]) is greater than 1000 nM. As to `O=C1CCN(c2ccc3ccc(C(=O)N4CCc5cc(F)ccc54)cc3c2)C(=O)N1` [Example 119, 1-(7-(5-fluoroindoline-1-carbonyl)naphthalen-2-yl)dihydropyrimidine-2,4(1H,3H)-dione], the IC50 in the assay on MV-4-11 cells (setting [2]) was greater than 1000 nM. As to `O=C1CCN(c2ccc3ccc(C(=O)N4CCc5ccccc54)cc3c2)C(=O)N1` [Example 120, 1-(7-(indoline-1-carbonyl)naphthalen-2-yl)dihydropyrimidine-2,4(1H,3H)-dione], the IC50 with MV-4-11 cells (setting [2]) was greater than 1000 nM. Take `O=C1CCN(c2ccc3ccc(C(=O)N4Cc5ccccc5C4)cc3c2)C(=O)N1` [Example 125, 1-(7-(isoindoline-2-carbonyl)naphthalen-2-yl)dihydropyrimidine-2,4(1H,3H)-dione]: the IC50 in the assay with MV-4-11 cells (setting [2]) lay within 100 to 1000 nM. The same measure, in the same setting: to `O=C1CCN(c2ccc3ccc(C(=O)N4CCc5c(F)cccc54)cc3c2)C(=O)N1` [Example 126, 1-(7-(4-fluoroindoline-1-carbonyl)naphthalen-2-yl)dihydropyrimidine-2,4(1H,3H)-dione] belongs greater than 1000 nM; to `O=C1CCN(c2ccc3ccc(C(=O)N4Cc5cccc(F)c5C4)cc3c2)C(=O)N1` [Example 127, 1-(7-(4-fluoroisoindoline-2-carbonyl)naphthalen-2-yl)dihydropyrimidine-2,4(1H,3H)-dione], 100 to 1000 nM. As to `O=C1CCC(N2Cc3cc(C(=O)NC4CC5(C4)CC(c4ccc(C(F)(F)F)cc4)C5)ccc3C2=O)C(=O)N1` (stereo not shown) [Example 226, 2-(2,6-dioxopiperidin-3-yl)-1-oxo-N-(6-(4-(trifluoromethyl)phenyl)spiro[3.3]heptan-2-yl)isoindoline-5-carboxamide], the IC50 with NCI-H1155 cells lay within 10 to 100 nM. Also, the DC50 on GSPT1 (setting [3]) was 100 to 300 nM. In the case of `Cc1ccc(C2CC3(CC(NC(=O)c4ccc5c(c4)CN(C4CCC(=O)NC4=O)C5=O)C3)C2)cc1` (stereo not shown) [Example 227, 2-(2,6-dioxopiperidin-3-yl)-1-oxo-N-(6-(p-tolyl)spiro[3.3]heptan-2-yl)isoindoline-5-carboxamide], the IC50 in the assay on NCI-H1155 cells is less than 10 nM. Moreover, the DC50 on GSPT1 (setting [4]) is less than 100 nM.

As for `O=C1CCC(N2Cc3cc(C(=O)N4CC5(CC(c6ccc(C(F)(F)F)cc6)C5)C4)ccc3C2=O)C(=O)N1` (stereo not shown) [Example 230, 3-(1-oxo-5-(6-(4-(trifluoromethyl)phenyl)-2-azaspiro[3.3]heptane-2-carbonyl)isoindolin-2-yl)piperidine-2,6-dione], in the assay with NCI-H1155 cells, the IC50 was less than 10 nM. Moreover, the DC50 at GSPT1 (setting [3]) is less than 100 nM. Take `Cc1ccc(C2CC3(C2)CN(C(=O)c2ccc4c(c2)CN(C2CCC(=O)NC2=O)C4=O)C3)cc1` (stereo not shown) [Example 231, 3-(1-oxo-5-(6-(p-tolyl)-2-azaspiro[3.3]heptane-2-carbonyl)isoindolin-2-yl)piperidine-2,6-dione]: in the assay on NCI-H1155 cells, the IC50 was less than 10 nM. In addition, the DC50 on GSPT1 (setting [3]) was less than 100 nM.

Turning to `O=C1CCC(N2Cc3cc(C(=O)N4CC5(C=C(c6ccc(F)cc6F)C5)C4)ccc3C2=O)C(=O)N1` (stereo not shown) [Example 235], in the assay with NCI-H1155 cells, the IC50 is less than 10 nM. Moreover, the DC50 on GSPT1 (setting [4]) is less than 100 nM. The like results for `Cc1ccc(C2=CC3(C2)CN(C(=O)c2ccc4c(c2)CN(C2CCC(=O)NC2=O)C4=O)C3)cc1` (stereo not shown) [Example 236, 3-(1-oxo-5-(6-(p-tolyl)-2-azaspiro[3.3]hept-5-ene-2-carbonyl)isoindolin-2-yl)piperidine-2,6-dione] were, in that order, less than 10 nM and less than 100 nM. Consider `O=C1CCC(N2Cc3cc(C(=O)N4CC5(C=C(c6ccc(C(F)(F)F)c(F)c6)C5)C4)ccc3C2=O)C(=O)N1` (stereo not shown) [Example 240, 3-(5-(6-(3-fluoro-4-(trifluoromethyl)phenyl)-2-azaspiro[3.3]hept-5-ene-2-carbonyl)-1-oxoisoindolin-2-yl)piperidine-2,6-dione], for which, in the assay on NCI-H1155 cells, the IC50 was less than 10 nM. In addition, the DC50 on GSPT1 (setting [4]) was less than 100 nM.

Regarding `O=C1CCC(N2Cc3cc(C(=O)N4CC5(C=C(c6ccc(C(F)(F)F)cc6F)C5)C4)ccc3C2=O)C(=O)N1` (stereo not shown) [Example 241, 3-(5-(6-(2-fluoro-4-(trifluoromethyl)phenyl)-2-azaspiro[3.3]hept-5-ene-2-carbonyl)-1-oxoisoindolin-2-yl)piperidine-2,6-dione], in the assay on NCI-H1155 cells, the IC50 fell in the range of 10 to 100 nM. At GSPT1 (setting [4]), the DC50 was less than 100 nM. With `O=C1CCC(N2Cc3cc(C(=O)NC4CC5(C=C(c6ccc(F)cc6F)C5)C4)c(F)cc3C2=O)C(=O)N1` (stereo not shown) [Example 254, N-(6-(2,4-difluorophenyl)spiro[3.3]hept-5-en-2-yl)-2-(2,6-dioxopiperidin-3-yl)-6-fluoro-1-oxoisoindoline-5-carboxamide], the IC50 in the assay on NCI-H1155 cells lay in the range of 10 to 100 nM. Also, at GSPT1 (setting [3]), the DC50 was in the range of 100 to 300 nM. The like results for `O=C1CCC(N2Cc3cc(C(=O)NC4CC5(C4)CC(c4ccc(F)cc4F)C5)c(F)cc3C2=O)C(=O)N1` (stereo not shown) [Example 255, N-(6-(2,4-difluorophenyl)spiro[3.3]heptan-2-yl)-2-(2,6-dioxopiperidin-3-yl)-6-fluoro-1-oxoisoindoline-5-carboxamide] were, in that order, 10 to 100 nM and less than 100 nM. For `O=C1CCC(N2Cc3cc(C(=O)NC4CC5(C4)CC(c4ccc(C(F)(F)F)cc4F)C5)ccc3C2=O)C(=O)N1` (stereo not shown) [Example 258, 2-(2,6-dioxopiperidin-3-yl)-N-(6-(2-fluoro-4-(trifluoromethyl)phenyl)spiro[3.3]heptan-2-yl)-1-oxoisoindoline-5-carboxamide], in the assay on NCI-H1155 cells, the IC50 fell in the range of 100 to 1000 nM. The DC50 on GSPT1 (setting [3]) was in the range of 100 to 300 nM. `O=C1CCC(N2Cc3cc(C(=O)N4Cc5c(Cl)ccc(C(F)(F)F)c5C4)ccc3C2=O)C(=O)N1` (stereo not shown) [Example 261, 3-(5-(4-chloro-7-(trifluoromethyl)isoindoline-2-carbonyl)-1-oxoisoindolin-2-yl)piperidine-2,6-dione]: in the assay with NCI-H1155 cells, the IC50 lay in the range of 10 to 100 nM. In addition, the DC50 at GSPT1 (setting [4]) was in the range of 100 to 300 nM. The like results for `O=C1CCC(N2Cc3cc(C(=O)N4Cc5ccc(OC(F)(F)F)c(F)c5C4)ccc3C2=O)C(=O)N1` (stereo not shown) [Example 263, 3-(5-(4-fluoro-5-(trifluoromethoxy)isoindoline-2-carbonyl)-1-oxoisoindolin-2-yl)piperidine-2,6-dione] were, in that order, 10 to 100 nM and 100 to 300 nM.

As for `O=C1CCC(N2Cc3cc(C(=O)N4Cc5cc(F)cc(C(F)(F)F)c5C4)ccc3C2=O)C(=O)N1` (stereo not shown) [Example 264, 3-(5-(6-fluoro-4-(trifluoromethyl)isoindoline-2-carbonyl)-1-oxoisoindolin-2-yl)piperidine-2,6-dione], the IC50 with NCI-H1155 cells was 10 to 100 nM. Besides, the DC50 at GSPT1 (setting [4]) is less than 100 nM.
